The assay can be described thus: Inhibition of AChE assessed as minimum drug level causing white zone of enzyme inhibition by TLC bioautography.

The structures appear in SMILES notation. In brackets after ≈: the same amount, converted by molar mass.

Turning to `COC1=C(C)C(=O)O/C1=C1\O[C@@]23OC4CC(C2[C@H]1C)N1CCC3[C@]41/C=C/[C@@H](C)O` (some centres not stated), the MIC came to 1.25 nM (≈ 0.501 ng/mL).
Next, `CCCCC12C3CC4C5[C@@H](C)[C@](O)([C@]6(O)OC(=O)C(C)=C6OC)O[C@]5(O3)C1CCN42` (some centres not stated): 1.19 nM (≈ 0.501 ng/mL).

For the origin of these results see ChEMBL document CHEMBL1155467, “Semisynthesis and acetylcholinesterase inhibitory activity of stemofoline alkaloids and analogues” (J Nat Prod, 2010).
